In US8680110B2, “P2X4 receptor antagonist” (Nippon Chemiphar Co., Ltd., priority 2010, dated 2014):
Structures can show the parent of a compound that is named as a salt.

Target: T1, human P2X4 receptors (Homo sapiens, UniProt Q99571)
T1 sequence (Q99571 1-388): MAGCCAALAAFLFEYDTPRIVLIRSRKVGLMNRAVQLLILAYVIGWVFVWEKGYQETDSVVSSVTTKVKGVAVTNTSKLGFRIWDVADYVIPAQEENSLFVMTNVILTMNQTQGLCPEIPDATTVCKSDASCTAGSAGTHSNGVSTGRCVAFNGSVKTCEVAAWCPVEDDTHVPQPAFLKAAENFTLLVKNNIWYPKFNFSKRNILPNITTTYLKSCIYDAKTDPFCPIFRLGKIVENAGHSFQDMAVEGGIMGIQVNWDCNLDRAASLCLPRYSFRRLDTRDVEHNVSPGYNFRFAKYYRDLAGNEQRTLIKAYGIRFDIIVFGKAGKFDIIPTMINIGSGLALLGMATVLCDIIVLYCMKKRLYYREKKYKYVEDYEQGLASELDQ
Assay: P2X4 receptor antagonism, intracellular calcium assay (Fura-2 AM) in 1321N1 cells
Assay type: cell-based
Conditions: 1321N1 cells stably expressing human P2X4 receptors; compound added 15 minutes before ATP; ATP-induced calcium influx; read-out: Inhibition activities (IC50 μM)
Description: 1321N1 cells stably expressing human P2X4 receptors were plated in 96-well assay plate and cultured 24 hours at 37° C. in an atmosphere of 5% CO2 for intracellular calcium assay. Fura-2 AM calcium fluorescent indicator was used for the intracellular calcium assay. Fura-2 AM was dissolved in an assay buffer, and the solution was loaded onto cells. The obtained plate was used for fluorescent assay. Test compounds were treated to cells 15 minutes before the addition of ATP, and the response to intracellular calcium influx induced by addition of ATP was monitored by a micro plate reader. The fluorescence ratio of excitations wavelengths of 340 nm and 380 nm was used as the index of intracellular calcium change. The inhibition activities of the test compounds were calculated by comparison with the absence of the test compound (control).
P2X4 receptor antagonism of the compound of the present invention was measured as described below. […]
Test compounds were treated to cells 15 minutes before the addition of ATP, and the response to intracellular calcium influx induced by addition of ATP was monitored by a micro plate reader. The fluorescence ratio of excitations wavelengths of 340 nm and 380 nm was used as the index of intracellular calcium change. The inhibition activities of the test compounds were calculated by comparison with the absence of the test compound (control).

IC50: 0.16 µM
SMILES: O=c1nc(-c2cccc(-c3nnn[nH]3)c2)c2ccc3ccccc3c2[nH]1 [Example 2, 4-[3-(1H-Tetrazol-5-yl)phenyl]-1H-benzo[h]quinazolin-2-one sodium salt]
